Experimental data from US20020025929A1, “METHOD OF BUILDING AND MAINTAINING BONE” (priority 1997, published 2002).
Marks after values point to notes of the source that are not given here.

How the values were obtained:
[1] = tested on: osteopenic ovariectomized rats; assay: Static and dynamic histomorphometry of L-1 vertebra; type: in vivo, Sprague-Dawley rats; conditions: OVX rats; for BFR/BS (bone formation rate) / BFR/TV (bone formation rate) / BV/TV (cancellous bone volume) / MAR (mineral apposition rate) / MS/BS (mineralizing surface) / Tb.N (trabecular number) / Tb.Sp (trabecular separation) / Tb.Th (trabecular thickness): L-1 vertebra, mean ± SEM; for BV/TV, trabecular thickness, trabecular number of L-1 vertebra (in words): second study; for MAR of L-1 vertebra (in words): compound 1a 0.01-1 mg/kg, EE2
Method: Oral administration was by gavage in a vehicle comprising 1 mL/kg of body weight of a 20% aqueous solution of hydroxypropyl-β-cyclodextrin. Compound 1a was administered by gavage in a vehicle of 1 mL/kg of body weight of a 20% aqueous solution of cyclodextrin. The estrogen-treated control animals were administered 0.1 mg/kg/day 17α-ethynyl estradiol by gavage.
Subcutaneous administration of PTH(1-34) was by injection of an acidified saline vehicle (0.001 N HCl and 2% heated-inactivated rat serum in physiological saline (Butler Co., Columbus, Ohio, USA).
For histomorphometry, L-1 vertebra were trimmed, using a low-speed diamond saw (Buehler Ltd., Lake Bluff, Ill.) and fixed in 70% ethanol. Specimens were stained for 4 days in Villanueva osteochrome bone stain (Polysciences Inc., Warrington, Pa.), destained, dehydrated in a graded series of alcohols, and defatted in acetone. L-1 vertebra were then infiltrated with methyl methacrylate (as described by Schenk et al. 1984) and embedded in a 75 ml: 19 ml: 2.5 g mixture of methyl methacrylate: dibutyl phthalate: benzoyl peroxide (Kodak, Rochester, N.Y.) and polymerized at room temperature. Longitudinal sections (4 and 8 μm) were cut on a Reichert-Jung 2065 microtome (Magee Scientific Inc., Dexter, Mich.). The 4 μm sections were stained with 6% silver nitrate (Von Kossa stain) before coverslipping; the 8 μm thick sections were mounted unstained for dynamic measurements. Sections were glued onto slides dipped in 0.5% gelatin, dried overnight, and coverslipped with Eukitt.
Histomorphometric measurements were made using an Optiphot-2 fluorescence microscope (Nikon, Melville, N.Y.) and a semi-automatic digitizing system (SummaSketch III, Summagraphics Co., Seymour, Conn.; KSS Image Analysis, KSS Scientific Consultants, Magna Utah) coupled to a PowerPC 7100/66 (Apple Computer, Cupertino, Calif.), using the image capture functions of NIH Image 1.59 (NIH, Bethesda, Md.). For L-1, the entire marrow region within the cortical shell was measured to derive trabecular bone parameters. Specifically, measurements were made of cancellous bone volume (BV/TV, %), trabecular thickness (Tb.Th, μm), number (Tb.N, #/mm) and separation (Tb.Sp, μm), mineralizing surface, mineral apposition rate, and bone formation rate, as previously described (Frost 1983; Jee et al. 1985; Parfitt et al., 1987).
(§1) In a second study, virgin Sprague-Dawley rats were bilaterally ovariectomized (except for the sham-operated group), the ovariectomized animals randomized, and allowed to lose bone for one month prior to treatment in the manner described above. The animal groups, each containing 7-8 animals, included sham-operated animals (SHAM); bilaterally ovariectomized animals (OVX); bilaterally ovariectomized animals treated with 0.01, 0.3 or 1 mg/kg/day of compound 1a, respectively, for three months; bilaterally ovariectomized animals treated subcutaneously with PTH(1-34) at a dose of 10 μg/kg/day for three months; bilaterally ovariectomized animals treated subcutaneously with PTH(1-34) at a dose of 10 μg/kg/day and orally with compound 1a at a dose of 0.3 mg/kg/day, both compounds administered for three months; bilaterally ovariectomized animals treated subcutaneously with PTH(1-34) at a dose of 10 μg/kg/day for forty-five days followed by gavage administration of vehicle for forty-five days; bilaterally ovariectomized animals treated subcutaneously with PTH(1-34) at a dose of 10 μg/kg/day for forty-five days followed by oral administration of only compound 1a at a dose of 0.3 mg/kg/day for forty-five days; and bilaterally ovariectomized animals treated with 17α-ethynyl estradiol administered orally at a dose of 0.1 mg/kg/day.

[2] = tested on: osteopenic ovariectomized rats; assay: Three point bending test of femora mid-shaft; type: in vivo, Sprague-Dawley rats; set-up: I (moment of inertia): unit not given beside the values; conditions: OVX rats; for cortical thickness of femora mid-shaft (in words): continuous treatment (PTH 90 days); for E (Young's modulus) / Fu (ultimate force) / I (moment of inertia) / t (cortical thickness) / u (toughness) / σu (strength): femora mid-shaft, mean ± SEM; for load to failure (Fu) and toughness of femora mid-shaft (in words): 1a dose-dependent up to 1 mg/kg, EE2 0.1 mg/kg, PTH (1-34) 45 and 90 days, combination
Method: Bone strength was measured for the femoral neck, midshaft, and the L-6 vertebra. Femora were thawed before testing, and bone strength was measured on intact femora using a three point bending test. Load was applied midway between two supports that were 15 mm apart. The femora were positioned so the loading point was 7.5 mm proximal from the distal popliteal space and bending occurred about the medial-lateral axis. Specimens were tested in a saline bath at 37° C. Each specimen was submerged in the saline bath for three minutes before testing to allow equilibration of temperature. Load-displacement curves were recorded at a crosshead speed of 1 mm/sec using a servo-hydraulic materials testing machine (MTS Corp., Minneapolis, Minn.) and an x-y recorder (Hewlett Packard 7090A, Palo Alto, Calif.). The measurements included: cross-sectional moment of inertia (I), cortical thickness (t), ultimate load (Fu), ultimate stress (σu), Young's modulus (E), and toughness (u). These values were calculated as described previously (Turner and Burr 1993; Turner et al. 1996).
as §1

[3] = Cmpd 1a 0.01 mg/kg/day oral, 3 months
[4] = Cmpd 1a 0.3 mg/kg/day oral, 3 months
[5] = Cmpd 1a 1 mg/kg/day oral, 3 months
[6] = 3 months: PTH (1-34) 10 μg/kg/day s.c., PTH + 1a 0.3 mg/kg/day oral, EE2 0.1 mg/kg/day oral
[7] = 3 months: PTH (1-34) 10 μg/kg/day s.c., 1a 0.3 mg/kg/day oral + PTH, EE2 0.1 mg/kg/day oral

COc1ccc(-c2sc3cc(O)ccc3c2Oc2ccc(OCCN3CCCCC3)cc2)cc1 [Compound 1a, 6-hydroxy-2-(4-methoxyphenyl)-3-[4-(2-piperidin-1-ylethoxy)phenoxy]-benzo[b]thiophene]
BFR/BS (bone formation rate) [1, 3]: 11.45 ± 1.9 μ/d × 100 | BFR/TV (bone formation rate) [1, 3]: 40.30 ± 11.41 %/y | BV/TV (cancellous bone volume) [1, 3]: 24.4 ± 5.9^s % | MAR (mineral apposition rate) [1, 3]: 0.72 ± .06 μ/d | MS/BS (mineralizing surface) [1, 3]: 15.90 ± 2.21^s.o % | Tb.N (trabecular number) [1, 3]: 5.77 ± 1.2^s #/mm | Tb.Sp (trabecular separation) [1, 3]: 137.6 ± 37^s μ | Tb.Th (trabecular thickness) [1, 3]: 42.4 ± 6 μ | BFR/BS (bone formation rate) [1, 4]: 9.48 ± 1.43^o μ/d × 100 | BFR/TV (bone formation rate) [1, 4]: 35.51 ± 9.14 %/y | BV/TV (cancellous bone volume) [1, 4]: 22.3 ± 3^s % | MAR (mineral apposition rate) [1, 4]: 0.66 ± .11 μ/d | MS/BS (mineralizing surface) [1, 4]: 14.47 ± 1.78^o % | Tb.N (trabecular number) [1, 4]: 6.07 ± .87^s #/mm | Tb.Sp (trabecular separation) [1, 4]: 131 ± 23^s.o μ | Tb.Th (trabecular thickness) [1, 4]: 36.8 ± 3^s μ | BFR/BS (bone formation rate) [1, 5]: 9.44 ± 2.4^o μ/d × 100 | BFR/TV (bone formation rate) [1, 5]: 29.94 ± 8.7 %/y | BV/TV (cancellous bone volume) [1, 5]: 22.1 ± 5.2^s % | MAR (mineral apposition rate) [1, 5]: 0.72 ± .08 μ/d | MS/BS (mineralizing surface) [1, 5]: 13.05 ± 2.44^s % | Tb.N (trabecular number) [1, 5]: 5.24 ± .82^s #/mm | Tb.Sp (trabecular separation) [1, 5]: 153.1 ± 35^s μ | Tb.Th (trabecular thickness) [1, 5]: 42.4 ± 7.3 μ | dynamic parameters MS/BS, MAR, BFR/BS, BFR/TV of L-1 vertebra (in words) ([1]; continuous treatment): decreased MS/BS and BFR in a dose-dependent manner to Sham and EE2 levels | BV/TV, trabecular thickness, trabecular number of L-1 vertebra (in words) ([1]; continuous treatment): little effect on BV/TV, trabecular thickness, or trabecular number | MAR of L-1 vertebra (in words) ([1]; continuous treatment): not different from OVX | cortical thickness of femora mid-shaft (in words) [2]: intermediate between Sham and OVX | E (Young's modulus) [2, 3]: 9081 ± 446 | Fu (ultimate force) [2, 3]: 160 ± 5^s | I (moment of inertia) [2, 3]: 4.35 ± .21 | t (cortical thickness) [2, 3]: .635 ± .020^s,o | u (toughness) [2, 3]: 3.72 ± .26^s,o | σu (strength) [2, 3]: 199 ± 5^s,o | E (Young's modulus) [2, 4]: 8844 ± 431 | Fu (ultimate force) [2, 4]: 164 ± 4^s,o | I (moment of inertia) [2, 4]: 4.05 ± .17^o | t (cortical thickness) [2, 4]: .654 ± .012^s,o | u (toughness) [2, 4]: 4.13 ± .24^o | σu (strength) [2, 4]: 217 ± 5^o | E (Young's modulus) [2, 5]: 10087 ± 520 | Fu (ultimate force) [2, 5]: 174 ± 4^o | I (moment of inertia) [2, 5]: 4.17 ± .21 | t (cortical thickness) [2, 5]: .671 ± .010^s,o | u (toughness) [2, 5]: 4.52 ± .25^o | σu (strength) [2, 5]: 228 ± 9^o | load to failure (Fu) and toughness of femora mid-shaft (in words) [2]: improved load to failure (Fu) and toughness in a dose-dependent manner to above OVX and not different from Sham at 1 mg/kg

C#C[C@]1(O)CC[C@H]2[C@@H]3CCc4cc(O)ccc4[C@H]3CC[C@@]21C [EE2, 17α-ethynyl estradiol]
BFR/BS (bone formation rate) [1, 6]: 8.76 ± 1.99^o μ/d × 100 | BFR/TV (bone formation rate) [1, 6]: 32.76 ± 6.9 %/y | BV/TV (cancellous bone volume) [1, 6]: 21.8 ± 4.1^s % | MAR (mineral apposition rate) [1, 6]: 0.58 ± .05^s.o μ/d | MS/BS (mineralizing surface) [1, 6]: 14.97 ± 3.07^o % | Tb.N (trabecular number) [1, 6]: 6.20 ± .66 #/mm | Tb.Sp (trabecular separation) [1, 6]: 127.5 ± 17.5 μ | Tb.Th (trabecular thickness) [1, 6]: 35.3 ± 5.6^s μ | BV/TV, trabecular thickness, trabecular number of L-1 vertebra (in words) ([1]; continuous treatment): little effect on BV/TV, trabecular thickness, or trabecular number | MAR of L-1 vertebra (in words) ([1]; continuous treatment): lowered MAR to below OVX, Sham, and compound 1a | cortical thickness of femora mid-shaft (in words) [2]: intermediate between Sham and OVX | E (Young's modulus) [2, 7]: 10002 ± 844 | Fu (ultimate force) [2, 7]: 182 ± 11^o | I (moment of inertia) [2, 7]: 4.42 ± .33 | t (cortical thickness) [2, 7]: .686 + .015^o | u (toughness) [2, 7]: 4.62 ± .52^o | σu (strength) [2, 7]: 225 ± 13^o | load to failure (Fu) and toughness of femora mid-shaft (in words) [2]: above OVX and not different from Sham
